Data on 23 molecules can be found in ChEMBL document CHEMBL1131993, “Binding affinities of 3-(3-phenylisoxazol-5-yl)methylidene-1-azabicycles to acetylcholine receptors” (Bioorg Med Chem Lett, 1999).

Assay [1] has as its target T1, Muscarinic acetylcholine receptor M1 (Homo sapiens) (UniProt P11229).
T1 sequence (whole entry): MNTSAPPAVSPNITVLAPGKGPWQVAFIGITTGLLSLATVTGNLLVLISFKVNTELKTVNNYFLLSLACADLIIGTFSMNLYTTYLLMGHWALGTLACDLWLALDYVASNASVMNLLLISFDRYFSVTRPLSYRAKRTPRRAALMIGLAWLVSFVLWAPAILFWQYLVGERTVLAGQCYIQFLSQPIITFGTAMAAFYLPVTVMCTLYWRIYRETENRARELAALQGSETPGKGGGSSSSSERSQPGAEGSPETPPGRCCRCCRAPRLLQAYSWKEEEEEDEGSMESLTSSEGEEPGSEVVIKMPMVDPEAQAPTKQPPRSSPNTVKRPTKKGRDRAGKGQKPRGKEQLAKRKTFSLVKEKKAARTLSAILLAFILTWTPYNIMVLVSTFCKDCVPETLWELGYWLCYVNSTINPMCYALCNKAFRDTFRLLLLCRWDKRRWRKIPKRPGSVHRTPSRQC
The assay is described as follows: Ability to displace [3H]N-methylscopolamine binding to M1 human recombinant muscarinic receptor in CHO cells at concentration 1 uM. Format: cell-based.

For assay [2], the target named is T2, Muscarinic acetylcholine receptor M2 (Homo sapiens) (UniProt P08172).
T2 sequence (whole entry): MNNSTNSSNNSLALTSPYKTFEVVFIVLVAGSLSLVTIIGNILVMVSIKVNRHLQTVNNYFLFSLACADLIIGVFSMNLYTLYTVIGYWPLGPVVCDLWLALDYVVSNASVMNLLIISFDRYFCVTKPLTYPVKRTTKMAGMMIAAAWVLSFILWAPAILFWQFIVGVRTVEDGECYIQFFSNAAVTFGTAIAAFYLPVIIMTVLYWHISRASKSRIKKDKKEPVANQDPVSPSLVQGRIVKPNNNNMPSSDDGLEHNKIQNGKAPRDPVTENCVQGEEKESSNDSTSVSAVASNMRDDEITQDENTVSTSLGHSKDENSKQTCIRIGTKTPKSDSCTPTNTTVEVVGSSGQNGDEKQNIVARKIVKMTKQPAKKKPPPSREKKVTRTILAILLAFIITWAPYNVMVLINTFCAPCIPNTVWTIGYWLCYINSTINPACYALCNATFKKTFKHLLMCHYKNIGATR
The assay is described as follows: Ability to displace [3H]N-methylscopolamine binding to M2 human recombinant muscarinic receptor in CHO cells at concentration 10 uM. It is filed as cell-based.

Assay [3] has as its target Muscarinic acetylcholine receptor M3 (Homo sapiens) (UniProt P20309). The assay is described as follows: Ability to displace [3H]N-methylscopolamine binding to M3 human recombinant muscarinic receptor in CHO cells at concentration 10 uM. Format: cell-based.
The target of assay [4] is T1, Muscarinic acetylcholine receptor M1 (Homo sapiens). The assay is described as follows: Ability to displace [3H]N-methylscopolamine binding to M1 human recombinant muscarinic receptor in CHO cells at concentration 10 uM. Format: cell-based.
In assay [5] the target is Neuronal acetylcholine receptor (Rattus norvegicus) (UniProt P04757+P09483+P12389+P12390+P12392+P43144+Q9JLB5+P12391+P43143+P20420+Q05941). The assay is described as follows: Ability to displace [3H]cytisine binding to nicotinic receptor in synaptic membrane fractions from rat cerebral cortices at a concentration of 10 uM. Format: cell membranes.
The target of assay [6] is Muscarinic acetylcholine receptor M3 (Homo sapiens) (UniProt P20309). Put plainly: Ability to displace [3H]N-methylscopolamine binding to M3 human recombinant muscarinic receptor in CHO cells at concentration 1 uM. It is filed as cell-based.
Chain of Muscarinic acetylcholine receptor M3 (Homo sapiens) (P20309 whole entry, looked up): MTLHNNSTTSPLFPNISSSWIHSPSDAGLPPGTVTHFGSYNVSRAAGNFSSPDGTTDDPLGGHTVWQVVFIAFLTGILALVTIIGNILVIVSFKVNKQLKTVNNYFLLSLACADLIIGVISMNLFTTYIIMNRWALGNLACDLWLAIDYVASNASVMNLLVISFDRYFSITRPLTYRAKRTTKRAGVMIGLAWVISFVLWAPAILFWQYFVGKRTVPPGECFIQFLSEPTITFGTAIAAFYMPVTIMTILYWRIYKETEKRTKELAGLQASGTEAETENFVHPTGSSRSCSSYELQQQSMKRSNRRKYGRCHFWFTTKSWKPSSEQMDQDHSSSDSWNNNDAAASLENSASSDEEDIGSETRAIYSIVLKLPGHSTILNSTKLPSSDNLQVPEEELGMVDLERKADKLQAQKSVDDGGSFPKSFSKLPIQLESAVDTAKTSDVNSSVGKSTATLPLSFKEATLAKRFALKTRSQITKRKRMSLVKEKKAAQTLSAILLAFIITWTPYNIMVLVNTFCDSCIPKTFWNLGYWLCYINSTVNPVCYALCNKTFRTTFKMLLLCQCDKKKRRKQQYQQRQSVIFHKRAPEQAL
For assay [7], the target named is T2, Muscarinic acetylcholine receptor M2 (Homo sapiens). The assay is described as follows: Ability to displace [3H]N-methylscopolamine binding to M2 human recombinant muscarinic receptor in CHO cells at concentration 1 uM. Format: cell-based.
In assay [8] the target is T3, Muscarinic acetylcholine receptor M1 (Homo sapiens, UniProt P11229).
T3 sequence (P11229 whole entry): T1 sequence (whole entry)
The assay is described as follows: The compound was tested for its binding affinity against M1 human recombinant muscarinic receptor in CHO cells. Format: cell-based.

What is called inhibition is the change of the read-out against control, counted positive when it falls. For `C(=C1\CN2CCC1CC2)/c1cc(-c2ccccc2)no1`, the inhibition in assay [1] stood at 7%; in assay [2], 38%; in assay [3] it was 48%; in assay [4], 51%; in assay [5], 48%; in assay [6] it was 12%. The inhibition in assay [7] was 0%.

With `Oc1ccc(-c2cc(/C=C3/CN4CCC3C4)on2)cc1O` (stereo not given), the inhibition in assay [1] was 0%; in assay [2] it was 9%; in assay [3] it was 0%; in assay [4] it was 16%; in assay [5], 64%; in assay [6] it was 0%. For the same molecule, the inhibition in assay [7] amounted to 6%.

Take `CC(C)(C)OC(=O)Nc1ccc(-c2cc(/C=C3/CN4CCC3C4)on2)cc1` (stereo not given): the inhibition came to 0% in assay [1]; 23% in assay [2]; 35% in assay [3]; 58% in assay [4]; 74% in assay [5]; 26% in assay [6]. In addition, the inhibition in assay [7] was determined as 3%.

Take `Oc1ccc(-c2cc(/C=C3/CN4CCC3C4)on2)cc1` (stereo not given): the inhibition in assay [1] was determined as 0%; in assay [2], 3%; in assay [3] it was 11%; in assay [4] it was 26%; in assay [5] it was 81%; in assay [6], 0%. Further, the inhibition in assay [7] is 6%.

Consider `Oc1ccc(-c2cc(/C=C3\CN4CCC3CC4)on2)cc1`, for which the inhibition in assay [1] turned out to be 0%; in assay [2], 7%; in assay [3], 0%; in assay [4] it was 2%; in assay [5], 72%; in assay [6], 0%. Moreover, the inhibition in assay [7] is 0%.

The term IC50 denotes the midpoint of a concentration-inhibition curve. For the molecule `CC(C)(C)OC(=O)Nc1ccc(-c2cc(/C=C3/CN4CCC3CC4)on2)cc1`, the inhibition worked out at 57% in assay [1]; 67% in assay [2]; 87% in assay [3]; 95% in assay [4]; 43% in assay [5]; 31% in assay [6]. Also, the inhibition in assay [7] is 16%. Also, in assay [8], the IC50 was 806 nM.

As to `CC(C)(C)OC(=O)Nc1ccc(-c2cc(/C=C3\CN4CCC3CC4)on2)cc1`, the inhibition in assay [1] amounted to 12%; in assay [2], 36%; in assay [3], 41%; in assay [4], 59%; in assay [5] it was 64%; in assay [6], 5%. Further, in assay [7], the inhibition turned out to be 14%. The IC50 in assay [8] was more than 10 nM.

For `C(=C1/CN2CCC1CC2)/c1cc(-c2ccccc2)no1`, the inhibition in assay [1] is 0%; in assay [2] it was 26%; in assay [3] it was 17%; in assay [4] it was 13%; in assay [6] it was 5%; in assay [7] it was 3%.

As for `Oc1ccc(-c2cc(/C=C3\CN4CCC3C4)on2)cc1` (stereo not given), the inhibition came to 0% in assay [1]; 10% in assay [2]; 20% in assay [3]; 0% in assay [4]; 36% in assay [5]; 10% in assay [6]. The inhibition in assay [7] was 1%.

Consider `COc1ccc(COc2ccc(-c3cc(/C=C4/CN5CCC4CC5)on3)cc2OCc2ccc(OC)cc2)cc1`, for which the inhibition in assay [1] was determined as 85%; in assay [2] it was 89%; in assay [3], 94%; in assay [4], 100%; in assay [5], 0%; in assay [6], 44%. The inhibition in assay [7] amounted to 27%. In addition, in assay [8], the IC50 is 247 nM.

`COc1ccc(COc2ccc(-c3cc(/C=C4/CN5CCC4CC5)on3)cc2)cc1`: the inhibition in assay [1] was determined as 89%; in assay [2], 83%; in assay [3] it was 52%; in assay [4] it was 93%; in assay [5], 0%; in assay [6], 22%. The inhibition in assay [7] amounted to 26%. The IC50 in assay [8] was 250 nM.

For `CC(C)(C)OC(=O)Nc1ccc(-c2cc(/C=C3\CN4CCC3C4)on2)cc1` (stereo not given), the inhibition came out at 3% in assay [1]; 53% in assay [2]; 53% in assay [3]; 53% in assay [4]; 75% in assay [5]; 0% in assay [6]. In addition, the inhibition in assay [7] amounted to 10%.

Take `Fc1ccc(-c2cc(/C=C3/CN4CCC3CC4)on2)cc1`: the inhibition came to 0% in assay [1], 6% in assay [4] and 19% in assay [5].

Consider `COc1ccc(-c2cc(/C=C3/CN4CCC3CC4)on2)cc1OC`, for which the inhibition was 28% in assay [1]; 71% in assay [2]; 46% in assay [3]; 81% in assay [4]; 90% in assay [5]; 6% in assay [6]. Also, the inhibition in assay [7] was determined as 30%.

For the molecule `COc1ccc(COc2ccc(-c3cc(/C=C4/CN5CCC4C5)on3)cc2)cc1` (stereo not given), the inhibition in assay [1] was 39%; in assay [4], 66%; in assay [5] it was 0%.

In the case of `COc1ccc(-c2cc(/C=C3\CN4CCC3CC4)on2)cc1OC`, the inhibition in assay [1] was 3%; in assay [2] it was 22%; in assay [3], 7%; in assay [4], 22%; in assay [5], 58%; in assay [6], 0%. In addition, the inhibition in assay [7] was 14%.

For the molecule `Oc1ccc(-c2cc(/C=C3\CN4CCC3C4)on2)cc1O` (stereo not given), the inhibition in assay [1], in assay [2], in assay [3], in assay [4], in assay [6] and in assay [7] was 0% in each case.

As to `Cc1ccc(-c2cc(/C=C3/CN4CCC3CC4)on2)cc1`, the inhibition in assay [1] stood at 7%; in assay [2], 14%; in assay [3], 15%; in assay [4], 7%; in assay [5], 70%; in assay [6], 3%. In addition, the inhibition in assay [7] was 2%.

As to `Nc1ccc(-c2cc(/C=C3/CN4CCC3C4)on2)cc1` (stereo not given), the inhibition in assay [1] stood at 7%; in assay [2], 4%; in assay [3] it was 10%; in assay [4], 44%; in assay [5] it was 49%; in assay [6], 0%. The inhibition in assay [7] was 1%.

On to `Fc1ccc(-c2cc(/C=C3\CN4CCC3CC4)on2)cc1`, for which the inhibition in assay [1] was found to be 0%; in assay [2], 22%; in assay [3] it was 10%; in assay [4], 0%; in assay [5], 19%; in assay [6] it was 0%. For the same molecule, the inhibition in assay [7] was found to be 13%.

For `Cc1ccc(-c2cc(/C=C3\CN4CCC3CC4)on2)cc1`, the inhibition in assay [1] worked out at 0%; in assay [2], 13%; in assay [3], 0%; in assay [4], 0%; in assay [5] it was 26%; in assay [6], 0%. In assay [7], the inhibition came to 0%.

With `COc1ccc(-c2cc(/C=C3/CN4CCC3CC4)on2)cc1`, the inhibition amounted to 23% in assay [1]; 63% in assay [2]; 63% in assay [3]; 79% in assay [4]; 68% in assay [5]; 14% in assay [6]. For the same molecule, the inhibition in assay [7] amounted to 16%.

Regarding `COc1ccc(-c2cc(/C=C3\CN4CCC3CC4)on2)cc1`, the inhibition was 0% in assay [1]; 19% in assay [2]; 18% in assay [3]; 21% in assay [4]; 25% in assay [5]; 3% in assay [6]. In addition, the inhibition in assay [7] was 10%.
